In paper PMC5587309, “Involvement of arginine 878 together with Ca^2+ in mouse aminopeptidase A substrate specificity for N-terminal acidic amino-acid residues” (PLoS ONE, 2017):
Changes are numbered by the printed parent chain. Like-named read-outs stand apart in the source and are kept apart here.

Key:
R878A mutated mAPA = biological target: T1, R878A mutated mAPA (Mus musculus, UniProt P16406, R878A); assay: Inhibition of GluNA hydrolysis by purified recombinant R878A His-mAPA; format: biochemical; details: R878A mAPA; for Ki: 0.5 mM GluNA, read-out: Ki
T1 construct: made in house; host or cells: stably transfected CHO-K1 cells
T1 sequence (P16406 1-945 R878A): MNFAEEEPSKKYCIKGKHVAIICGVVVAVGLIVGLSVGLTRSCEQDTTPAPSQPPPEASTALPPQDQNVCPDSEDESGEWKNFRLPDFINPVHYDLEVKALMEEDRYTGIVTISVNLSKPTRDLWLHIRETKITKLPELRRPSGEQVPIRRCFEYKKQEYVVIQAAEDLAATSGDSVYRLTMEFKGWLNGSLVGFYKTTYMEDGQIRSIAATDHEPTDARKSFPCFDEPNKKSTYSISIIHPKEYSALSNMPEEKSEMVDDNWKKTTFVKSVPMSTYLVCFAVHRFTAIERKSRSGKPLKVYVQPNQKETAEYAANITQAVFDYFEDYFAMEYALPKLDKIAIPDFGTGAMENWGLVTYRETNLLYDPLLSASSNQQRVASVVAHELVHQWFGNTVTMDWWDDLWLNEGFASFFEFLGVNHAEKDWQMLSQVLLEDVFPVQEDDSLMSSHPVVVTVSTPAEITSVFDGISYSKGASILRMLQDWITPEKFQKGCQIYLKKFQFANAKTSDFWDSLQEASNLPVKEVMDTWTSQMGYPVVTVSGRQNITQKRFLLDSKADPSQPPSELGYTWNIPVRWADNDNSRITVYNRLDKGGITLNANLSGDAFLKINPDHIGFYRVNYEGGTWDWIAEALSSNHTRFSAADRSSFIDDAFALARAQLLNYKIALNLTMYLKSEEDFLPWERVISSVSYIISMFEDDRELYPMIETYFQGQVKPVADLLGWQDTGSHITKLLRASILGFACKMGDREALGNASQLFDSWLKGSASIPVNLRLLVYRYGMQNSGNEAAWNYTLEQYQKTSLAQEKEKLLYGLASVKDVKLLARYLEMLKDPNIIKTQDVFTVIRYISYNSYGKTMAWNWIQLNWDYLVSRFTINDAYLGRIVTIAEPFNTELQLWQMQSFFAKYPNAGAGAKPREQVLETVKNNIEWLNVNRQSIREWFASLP
Description: (§1) Enzyme assays were carried out for wild-type and mutated His-mAPAs in 50 mM Tris-HCl buffer, pH 7.4, with or without 4 mM CaCl2, by monitoring the rate of hydrolysis of GluNA, as previously described. The sensitivity to Ca^2+ of purified wild-type and mutated His-mAPA was determinated by incubating 0.5 mM GluNA with 0 to 4 mM CaCl2 in a final volume of 100 μl of 50 mM Tris-HCl buffer, pH 7.4. All the assays were performed in black 96-well plates (solid black 96-well flat-bottomed non-treated plates with no lid; Corning Costar). All of the enzymatic studies were performed such that substrate hydrolysis rates were maintained below 10% (initial rate conditions). The kinetic curves were monitored by following the increase in fluorescence at 460 nm (lex = 330 nm), induced by the release of the β-naphthylamide fluorogenic part of the substrate by APA. Fluorescence signals were monitored by counting photons with a spectrophotometer (Fusion universal microplate analyser; Packard) equipped with a temperature control device and a plate shaker. The kinetic parameters (Km and kcat) were determined from Michaelis-Menten plots, using GraphPad Prism 4 software (GraphPad) with a final concentration of substrate (GluNA) from 0.005 to 5 mM with or without 4 mM Ca^2+. For evaluation of the substrate specificity of APA with or without 4 mM Ca^2+, the rate of hydrolysis of […] additional substrates, α-L-aspartate-β-naphthylamide (AspNA), α-L-alanine-β-naphthylamide (AlaNA) and basic α-L-lysine-β-naphthylamide (LysNA), was determined under the same experimental conditions as described for GluNA. The sensitivity of wild-type and mutated His-mAPAs to inhibition by [(3S)-3-amino-4-sulfanyl-butane-1-sulfonic acid] (EC33), glutamate-thiol (GluSH), glutamate-phosphonic-acid (GluPO3H2), methionine-thiol (MetSH) and lysine-thiol (LysSH) was determined by establishing dose-dependent inhibition curves for a final GluNA concentration of 0.5 mM in the presence or absence of 4 mM CaCl2. These compounds being linear competitive inhibitors, their Ki were calculated from the formula Ki = IC50/ (1+ [GluNA]/Km).

R878K mutated mAPA = biological target: T2, R878K mutated mAPA (Mus musculus, UniProt P16406, R878K); assay: Kinetic parameters of substrate hydrolysis by R878K His-mAPA; format: biochemical
T2 construct: made in house; host or cells: stably transfected CHO-K1 cells
T2 sequence (P16406 1-945 R878K): T1 sequence (P16406 1-945 R878A) with A878K
Description: as §1

Row | Compound | Ki (R878A mutated mAPA; 4 mM Ca2+) | enhancement of inhibitory potency by 4 mM Ca2+ compared to Ki in the absence of Ca2+ (R878A mutated mAPA) | Ki (R878A mutated mAPA; absence of calcium) | Km (R878K mutated mAPA; 4 mM Ca2+) | kcat (R878K mutated mAPA; 4 mM Ca2+) | Km (R878K mutated mAPA; no Ca2+) | kcat (R878K mutated mAPA; no Ca2+) | decrease in the affinity of the enzyme for the substrate compared to wild-type (factor) (R878K mutated mAPA; presence of Ca2+)
1 | N[C@H](CS)CCS(=O)(=O)O [EC33, (3S)‐3‐amino‐4‐sulfanylbutane‐1‐sulfonic acid] | 2000 ± 200 nM | – | – | – | – | – | – | –
2 | N[C@H](CS)CCC(=O)O [GluSH, (4S)-4-amino-5-sulfanylpentanoic acid] | 983 ± 160 nM | 1.7 fold | 1720 ± 190 nM | – | – | – | – | –
3 | C[C@H](N)C(=O)Nc1ccc2ccccc2c1 [HAlaβNA, α-L-alanine-β-naphthylamide] | – | – | – | 821 ± 142 µM | 26.2 ± 1.5 s⁻¹ | 670 ± 25.2 µM | 27.1 ± 4.8 s⁻¹ | –
4 | N[C@@H](CC(=O)O)C(=O)Nc1ccc2ccccc2c1 [HAspβNA, α-L-aspartate-β-naphthylamide] | – | – | – | 202 ± 5.7 µM | 42.2 ± 1.1 s⁻¹ | 3150 ± 328 µM | 0.2 ± 0.01 s⁻¹ | –
5 | N[C@@H](CCC(=O)O)C(=O)Nc1ccc2ccccc2c1 [HGluβNA, α-L-glutamyl-β-naphthylamide] | – | – | – | 269 ± 5.1 µM | 135 ± 1.3 s⁻¹ | 12500 ± 1450 µM | 3.12 ± 0.4 s⁻¹ | 6
6 | NCCCC[C@H](N)C(=O)Nc1ccc2ccccc2c1 [HLysβNA, α-L-lysine-β-naphthylamide] | – | – | – | 229 ± 16.2 µM | 24.4 ± 0.5^n.s s-1 | 336 ± 54.3 µM | 9.0 ± 0.5 s⁻¹ | –
7 | NCCCC[C@H](N)CS [LysSH, (2S)-2,6-diaminohexane-1-thiol] | 7510 ± 660 nM | – | 118 ± 13 nM | – | – | – | – | –
8 | CSCC[C@H](N)CS [MetSH] | 3220 ± 200 nM | – | 475 ± 140 nM | – | – | – | – | –
